From US8097585B2, “Methods of treating inflammation by administration of heme oxygenase-1 and products of heme degradation” (priority 2002, dated 2012)
Counter-ions that a name gives are not always drawn.

What was measured:
NFAT = test: EMSA of nuclear extracts, NFAT DNA binding; assay type: cell-based; conditions: Jurkat T cells, PMA plus ionomycin, 100 μM biliverdin
Description: Nuclear protein extraction and electrophoretic mobility shift assay (EMSA). Jurkat T cells were cultured in 10% FCS supplemented RPMI 1640 with 50 nM phorbol myristyl acetate (PMA) and 2 μM ionomycin (both reagents from ICN Biomedicals) in the presence or absence of 100 μM biliverdin. Following 0, 2, and 4 hrs of stimulation, cells (30×10^6 cells for each group at each time points) were collected, washed twice with PBS, and pelleted. Nuclear and cytoplasmic extracts were prepared according to a modified Shapiro's method (Shapiro et al., DNA 7(1):47-55, 1988). Protein concentrations were determined by the Bradford assay. The following oligonucleotides (Invitrogen, Calsbad, Calif.) were used for EMSA:
NFAT, (coding) 5′-[…]-3′ (SEQ ID NO:5),
(non-coding) 5′-[…]-3′ (SEQ ID NO:6); and
Oligonucleotides were radioactively labeled with [^32P] ATP. The EMSA reactions were assembled as previously described (Usheva et al., Proc. Natl. Acad. Sci. USA 93(24):13571-6, 1996). Digital images from the EMSA radiographs were obtained using an image scanner.

nitric oxide = test: Serum nitrite/nitrate, SITx with preserved intestine; assay type: in vivo, LEW rats
Description: Detection of Serum Mediators. Serum samples from the recipients transplanted with preserved intestine were taken at 3 and 12 hours after reperfusion and stored at […] until evaluation. Serum IL-6 was determined using a rat enzyme-linked immunoassay (ELISA) kits as described by the manufacturer (R & D Systems, Inc., Cambridge, Mass.). To monitor the production of nitric oxide, the stable end products of NO metabolism, serum nitrite/nitrate levels, were measured 12 hours after engraftment using a commercially available test kit (Cayman, Ann Arbor, Mich.). In this assay system, nitrate is reduced to nitrite using nitrate reductase, and the nitrite concentration of the sample is subsequently measured using the Griess reaction.

C=CC1=C(C)/C(=C/C2=NC(=C\c3[nH]c(/C=C4\NC(=O)C(C)=C4C=C)c(C)c3CCC(=O)O)/C(CCC(=O)O)=C2C)NC1=O [biliverdin, biliverdin dihydrochloride]
DNA binding of NFAT (NFAT): inhibited DNA binding | mean serum nitrite/nitrate (NO) level (nitric oxide; BV treated controls (no transplant)): 18.4 ± 3.2 µM | decrease of transplantation-induced serum NO levels (nitric oxide; SITx, 12 hours after engraftment): 53% | serum NO level (nitric oxide; SITx, 12 hours after engraftment, untreated 34.4±15.2): 18.2 ± 3.9 µM
